We go through three molecules from article PMC7617869, “Molecular glues that inhibit deubiquitylase activity and inflammatory signaling” (Nature Structural & Molecular Biology, 2025).

The structures appear in SMILES notation. Where “and” joins values, the source holds several entries; their conditions need not be identical. Identical values can stand only once.

In assay [1] the test system is ISRE in THP-1 cells (TLR9 agonist ODN 2216). The assay is described as follows: THP-1 ISRE luciferase reporter, ODN 2216 stimulation. To be noted: ODN 2216 1 µM, 4 μM compound, 16 h. Type of assay: cell-based, human. As for the experimental part: THP-1 in vitro experiments
THP-1-DualTM cells (InvivoGen), derived from a human monocytic cell line, isolated from a patient with acute monocytic leukaemia, were cultured as per manufacturer’s guidance. Cells were seeded at 1x10^6 cells/mL in RPMI1640 media containing 10% fetal bovine serum (FBS), 1% penicillin-streptomycin (PS) (Gibco Laboratories) with DMSO (0.1%) (control) or in media containing JMS-175- […]
ng/mL) (Merck Life Science), ODN 2216 (1 µM) (Miltenyi Biotec), or Poly:IC (1 µg/mL) (InvivoGen).
Tofacitinib (Cambridge Biosciences) at 0.4 µM was used for comparison against a known JAK inhibitor.
Cells were centrifuged at 300 g for 5 minutes. Supernatant was removed and subjected to simultaneous study of the NF -κB pathway, by monitoring the activity of secreted alkaline phosphatase reporter (SEAP), and the IRF pathway, by assessing the activity o f a secreted Lucia luciferase using QUANTI - Blue ™ Solution and QUANTI -Luc™ 4 Lucia/Gaussia (InvivoGen), respectively, as per manufacturer’s instructions. Pelleted cells were used for FACS analysis using IFNα/β R1 APC-conjugated antibody or isotype control (Biotechne, FAB245A and IC002A), or unstained staining procedure with and without Zombie GreenTM (Biolegend). Samples were analysed using CytoFlex LX (Beckman) (50,000 live cells per condition). Median fluorescence intensity for APC channel gated on single cell live cells was analysed and compared as a percentage to control (no stimulation condition). […]
(A reporter such as luciferase makes a cellular process visible.)

Assay [2] addresses T1, USP2 (Homo sapiens, UniProt O75604).
T1 construct: His (N, cleaved yes); host or cells: Escherichia coli BL21(DE3)
T1 sequence (O75604 258-605 limits assumed): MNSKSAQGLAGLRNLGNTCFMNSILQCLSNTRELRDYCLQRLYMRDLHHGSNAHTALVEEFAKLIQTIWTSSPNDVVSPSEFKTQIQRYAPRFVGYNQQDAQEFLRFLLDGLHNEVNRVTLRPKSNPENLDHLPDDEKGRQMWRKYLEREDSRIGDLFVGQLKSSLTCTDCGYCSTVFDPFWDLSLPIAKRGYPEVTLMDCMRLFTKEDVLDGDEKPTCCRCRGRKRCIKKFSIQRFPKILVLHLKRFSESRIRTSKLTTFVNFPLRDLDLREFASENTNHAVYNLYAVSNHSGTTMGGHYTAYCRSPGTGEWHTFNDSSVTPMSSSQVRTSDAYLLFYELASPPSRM
Kind of assay: USP2 IQF diubiquitin selectivity assay. The assay is classed as biochemical. The conditions noted are these: for USP2, normalised activity (Ext. 1a): two replicate columns. As for the experimental part:
BRISC DUB activity was measured at room temperature using 1 nM BRISC and 500 nM IQF diubiquitin K63 substrate (LifeSensors, DU6303) in the presence of DMSO and compounds at 10 μM (final concentrations). Assays were performed in 384-well black flat-bottom low-flange plates (Corning, 35373) in buffer containing 50 mM HEPES–NaOH pH 7.0, 100 mM NaCl, 1 mg ml^−1 BSA, 1 mM DTT and 0.03% v/v Brij-35. Then, 10 μl of twofold concentrated enzyme stock was dispensed, followed by transfer of 200 nl of compounds (1 mM stock) using a 384-pin tool and a 15-min incubation at room temperature. Then, 10 μl of twofold concentrated substrate stock was added and the reaction was monitored by measuring fluorescence intensity (excitation, 540 nm; emission, 580 nm) after 20-min incubation at room temperature and ~50% of substrate was consumed. Orthogonal assays for verification of H20 and P12 hit compounds using USP2 (100 nM) and trypsin (125 nM) were performed in identical conditions.
IQF assays were performed in DUB reaction buffer containing 50 mM HEPES–NaOH pH 7.0, 100 mM NaCl, 0.1 mg ml^−1 BSA, 1 mM DTT and 0.03% v/v Brij-35. […] The final concentration of BRISC WT, all BRISC mutants, HsBRISCΔLoop, MmBRISC and DrBRISCΔNΔC was 1 nM. Other enzymes were tested at the following concentrations: 5 nM ARISC (FL), 10 nM CfBRISCΔNΔC, 250 nM AMSH* (ref. [43]), 500 nM USP2 and 1 μM trypsin (Sigma, 9002-07-7). For Michaelis–Menten experiments, 1 nM BRISC with 0–1 μM IQF K63-linked diubiquitin substrate was used. Michaelis–Menten analyses and Lineweaver–Burk plots were calculated using GraphPad Prism (version 9.0).
To assess enzymatic activity, BRISC complexes were diluted to concentrations between 1 nM and 50 nM. […] Then, 20-μl enzyme reactions were carried out in 384-well black flat-bottom low-flange plates (Corning, 35373). DUB activity was measured using IQF K63-linked diubiquitin (LifeSensors, DU6303) at 50 nM. Cleaved diubiquitin was monitored by measuring fluorescence intensity (excitation, 544 nm; emission, 575 nm; dichroic mirror, 560 nm). Fluorescence intensity was measured every minute for 30 min at 30 °C. Fluorescence intensity units were plotted against time to generate a linear reaction progress curve, where the initial velocity (V0) corresponds to the gradient of the curve (typically achieved within 15 min). IC50 values were calculated using the GraphPad Prism (version 9.0) built-in dose–response equation for inhibitor concentration versus response (variable slope).

Consider `Cn1cc(NC(=O)c2c(Cl)cccc2Cl)c(C(=O)NC2CCN(C(=O)c3c(Cl)cccc3Cl)CC2)n1` [AP-5-145], for which the “ISRE luciferase signal in THP-1 supernatant” value in assay [1] is 228.667 and 315.667 and 335.333.

With `O=C(NC1C2CNCC21)c1nn(C(=O)c2c(Cl)cccc2Cl)cc1NC(=O)c1c(Cl)cccc1Cl` (stereo not drawn) [FX-171-C], the “ISRE luciferase signal in THP-1 supernatant” value in assay [1] was 149.667 and 263.333 and 287.667. For the same molecule, the “Normalised V0” value is 1.153 and 1.005 and 0.8911 in assay [2] (Fig. 1g, USP2, FX-171-C 0.02 μM); 1.181 and 1.054 and 0.8345 in assay [2] (Fig. 1g, USP2, FX-171-C 0.0399999 μM); 1.101 and 1.035 and 0.8564 in assay [2] (Fig. 1g, USP2, FX-171-C 0.0599997 μM); 1.262 and 0.9465 and 0.964 in assay [2] (Fig. 1g, USP2, FX-171-C 0.0799994 μM); 1.156 and 1.12 and 1.0155 in assay [2] (Fig. 1g, USP2, FX-171-C 0.119998 μM); 1.162 and 0.9867 and 0.9385 in assay [2] (Fig. 1g, USP2, FX-171-C 0.199996 μM). In addition, the “Normalised V0” value was 1.323 and 0.7865 and 0.9403 in assay [2] (Fig. 1g, USP2, FX-171-C 0.499975 μM); 1.167 and 0.9524 and 0.9376 in assay [2] (Fig. 1g, USP2, FX-171-C 0.799936 μM); 1.254 and 0.9797 and 0.8377 in assay [2] (Fig. 1g, USP2, FX-171-C 1.25984 μM); 1.211 and 0.9571 and 0.9503 in assay [2] (Fig. 1g, USP2, FX-171-C 1.9996 μM); 1.329 and 0.7564 and 0.948 in assay [2] (Fig. 1g, USP2, FX-171-C 3.159 μM); 1.206 and 0.9941 and 0.9284 in assay [2] (Fig. 1g, USP2, FX-171-C 5.19739 μM). Further, the “Normalised V0” value in assay [2] (Fig. 1g, USP2, FX-171-C 7.99364 μM) was 1.269 and 0.9668 and 0.7862; in assay [2] (Fig. 1g, USP2, FX-171-C 12.7839 μM), 1.167 and 1.027 and 0.9175; in assay [2] (Fig. 1g, USP2, FX-171-C 19.96 μM), 1.282 and 0.8934 and 0.9216; in assay [2] (Fig. 1g, USP2, FX-171-C 31.4999 μM), 1.071 and 0.9617 and 0.949; in assay [2] (Fig. 1g, USP2, FX-171-C 50.147 μM), 1.087 and 1.072 and 0.8163; in assay [2] (Fig. 1g, USP2, FX-171-C 79.7601 μM), 1.1 and 0.8638 and 0.912. Moreover, the “Normalised V0” value was 1.048 and 0.9793 and 0.8997 in assay [2] (Fig. 1g, USP2, FX-171-C 125.99 μM); 1.047 and 0.829 and 0.8108 in assay [2] (Fig. 1g, USP2, FX-171-C 199.922 μM).

As for `O=C(NC1CCNCC1)c1nn(C(=O)c2c(Cl)cccc2Cl)cc1NC(=O)c1c(Cl)cccc1Cl` [JMS-175-2], the “Normalised V0” value in assay [2] (Fig. 1e, USP-2, JMS-175-2 0.02 μM) was 1.069 and 1.241 and 0.9432; in assay [2] (Fig. 1e, USP-2, JMS-175-2 0.0399999 μM) it was 0.8007 and 1.129 and 1.003; in assay [2] (Fig. 1e, USP-2, JMS-175-2 0.0599997 μM), 1.048 and 0.9811 and 1.113; in assay [2] (Fig. 1e, USP-2, JMS-175-2 0.0799994 μM), 0.9033 and 1.198 and 1.261; in assay [2] (Fig. 1e, USP-2, JMS-175-2 0.119998 μM) it was 0.9288 and 1.09 and 1.206; in assay [2] (Fig. 1e, USP-2, JMS-175-2 0.199996 μM) it was 0.6627 and 1.115 and 1.202. Moreover, the “Normalised V0” value was 0.7837 and 1.098 and 1.253 in assay [2] (Fig. 1e, USP-2, JMS-175-2 0.499975 μM); 0.8725 and 1 and 1.269 in assay [2] (Fig. 1e, USP-2, JMS-175-2 0.799936 μM); 0.992 and 1.247 in assay [2] (Fig. 1e, USP-2, JMS-175-2 1.25984 μM); 0.8222 and 1.018 and 1.206 in assay [2] (Fig. 1e, USP-2, JMS-175-2 1.9996 μM); 1.0183 and 0.9107 and 1.032 in assay [2] (Fig. 1e, USP-2, JMS-175-2 3.159 μM); 1.009 and 1.289 in assay [2] (Fig. 1e, USP-2, JMS-175-2 5.19739 μM). The “Normalised V0” value was 0.8621 and 1.003 and 1.185 in assay [2] (Fig. 1e, USP-2, JMS-175-2 7.99364 μM); 0.6092 and 0.9802 and 1.084 in assay [2] (Fig. 1e, USP-2, JMS-175-2 12.7839 μM); 1.301 and 1.171 and 1.043 in assay [2] (Fig. 1e, USP-2, JMS-175-2 19.96 μM); 1.058 and 1.049 and 0.9631 in assay [2] (Fig. 1e, USP-2, JMS-175-2 31.4999 μM); 1.16 and 1.045 and 1.064 in assay [2] (Fig. 1e, USP-2, JMS-175-2 50.147 μM); 0.9987 and 0.9518 and 1.282 in assay [2] (Fig. 1e, USP-2, JMS-175-2 79.7601 μM). For the same molecule, the “Normalised V0” value is 1.008 and 1.145 and 1.176 in assay [2] (Fig. 1e, USP-2, JMS-175-2 125.99 μM); 0.9471 and 0.7832 and 0.9905 in assay [2] (Fig. 1e, USP-2, JMS-175-2 199.922 μM). Besides, the “USP2, normalised activity (Ext. 1a)” value in assay [2] (log [compound (μM)] 0.1938, listed as H20) was 1.2610 and 1.0496; in assay [2] (log [compound (μM)] 0.4949, listed as H20), 1.2203 and 1.1061; in assay [2] (log [compound (μM)] 0.7959, listed as H20), 1.1774 and 1.0526; in assay [2] (log [compound (μM)] 1.0969, listed as H20), 1.1262 and 1.0278; in assay [2] (log [compound (μM)] 1.3979, listed as H20) it was 1.0528 and 0.9672; in assay [2] (log [compound (μM)] 1.6990, listed as H20) it was 1.0367 and 0.9078. For the same molecule, the “USP2, normalised activity (Ext. 1a)” value in assay [2] (log [compound (μM)] 2.0000, listed as H20) was 0.9400 and 0.8456; in assay [2] (log [compound (μM)] 2.3010, listed as H20), 0.9026 and 0.7165; in assay [2] (log [compound (μM)] -0.1072, listed as H20), 1.1074 and 1.0499; in assay [2] (log [compound (μM)] -0.4082, listed as H20) it was 1.1923 and 1.0651; in assay [2] (log [compound (μM)] -0.7093, listed as H20), 1.1905 and 1.0735; in assay [2] (log [compound (μM)] -1.7100, normalisation point), 1.0000.
